# Assay results: patent publication US10076519B2 (CYTOKINETICS, INC., priority 2010, dated 2018)
# System: rabbit skeletal myofibrils (fast skeletal myofibrils)
# Assay: Activation of fast skeletal myofibrils (PUMA assay, PK/LDH-coupled ATPase at pCa25)
# Format: biochemical
# In short: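 ATPase activity of Triton-washed rabbit skeletal myofibrils, roughly 90% fast fibres, tracked by NADH loss at 340 nm through a PK/LDH-coupled ADP-regenerating system. Calcium set to 25% of maximal activity (pCa25), in PIPES 12 mM pH 6.8 with 2 mM MgCl2 and 1 mM DTT; AC1.4 reported.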
# [1] = AC1.4 determined according to the procedure of Example 39, reported as class symbols
# [2] = median AC1.4 class, procedure of Example 39
# [3] = median AC1.4 reported as class, procedure of Example 39
SMILES,Mean AC1.4 [2],Mean AC1.4 [3],other results
CC(C)(CNc1ccc(-c2cccc(C(=O)NCCN)c2)nn1)c1ccc(F)cc1 [N-(2-aminoethyl)[3-(6-{[2-(4-fluorophenyl)-2-methylpropyl]amino}pyridazin-3-yl)phenyl]carboxamide],,,Mean AC1.4 [1]: A (A=<1 uM)
"NCCNC(=O)c1cnc(-c2ccc(NCC3(c4ncccc4F)CCC3)nn2)s1 [N-(2-aminoethyl){2-[6-({[(3-fluoro(2-pyridyl))cyclobutyl]methyl}ami-no)pyridazin-3-yl](1,3-thiazol-5-yl)}carboxamide]",A (A=<1 uM),,
CC(C)(CNc1ccc(C(=O)NCCC(N)=O)nn1)c1ccc(F)cc1 [N-(2-carbamoylethyl)(6-{[2-(4-fluorophenyl)-2-methylpropyl]amino}pyridazin-3-yl)carboxamide],,,Mean AC1.4 [1]: D (D=>20 uM)
O=C(NCCF)c1ccc(F)c(-c2ccc(NC[C@]3(c4ncccc4F)C[C@H](F)C3)nn2)c1 [N-(2-fluoroethyl){4-fluoro-3-[6-({[3-fluoro-1-(3-fluoro(2-pyridyl))cyclobutyl]methyl}ami-no)pyridazin-3-yl]phenyl}carboxamide],,B (B=1-10 uM),
"O=C(NC1CCOCC1)c1cccc(-c2ccc(NC[C@]3(c4ncccc4F)C[C@H](F)C3)nn2)c1 [N-(2H-3,4,5,6-tetrahydropyran-4-yl){3-[6-({[3-fluoro-1-(3-fluoro(2-pyridyl))cyclobutyl]methyl}ami-no)pyridazin-3-yl]phenyl}carboxamide]",,B (B=1-10 uM),
"O=C(NC1CC(F)(F)C1)c1ccc(F)c(-c2ccc(NC[C@]3(c4ncccc4F)C[C@H](F)C3)nn2)c1 [N-(3,3-difluorocyclobutyl){4-fluoro-3-[6-({[3-fluoro-1-(3-fluoro(2-pyridyl))cyclobutyl]methyl}ami-no)pyridazin-3-yl]phenyl}carboxamide]",,A (A=<1 uM),
"NCC(F)(F)CNC(=O)c1cnc(-c2ccc(NCC3(c4ncccc4F)CCC3)nn2)s1 [N-(3-amino-2,2-difluoropropyl){2-[6-({[(3-fluoro(2-pyridyl))cyclobutyl]methyl}ami-no)pyridazin-3-yl](1,3-thiazol-5-yl)}carboxamide]",A (A=<1 uM),,
CC(C)(CNc1ccc(-c2cccc(C(=O)NCCCN)c2)nn1)c1ccc(F)cc1 [N-(3-aminopropyl)[3-(6-{[2-(4-fluorophenyl)-2-methylpropyl]amino}pyridazin-3-yl)phenyl]carboxamide],,,Mean AC1.4 [1]: B (B=1-10 uM)
N#Cc1nc[nH]c1NC(=O)c1ccc(NCC2(c3ncccc3F)CCC2)nn1 [N-(4-cyanoimidazol-5-yl)[6-({[(3-fluoro(2-pyridyl))cyclobutyl]methyl}ami-no)pyridazin-3-yl]carboxamide],,C (C=10-20 uM),
N#Cc1cn[nH]c1NC(=O)c1ccc(NCC2(c3ncccc3F)CCC2)nn1 [N-(4-cyanopyrazol-5-yl)[6-({[(3-fluoro(2-pyridyl))cyclobutyl]methyl}ami-no)pyridazin-3-yl]carboxamide],,B (B=1-10 uM),
CC(C)(CNc1ccc(C(=O)N[C@H](Cc2ccccc2)C(N)=O)nn1)c1ccc(F)cc1 [N-((1R)-1-carbamoyl-2-phenylethyl)(6-{[2-(4-fluorophenyl)-2-methylpropyl]amino}pyridazin-3-yl)carboxamide],,,Mean AC1.4 [1]: C (C=10-20 uM)
CC(C)(CNc1ccc(C(=O)N[C@@H](CO)C(N)=O)nn1)c1ccc(F)cc1 [N-((1S)-1-carbamoyl-2-hydroxyethyl)(6-{[2-(4-fluorophenyl)-2-methylpropyl]amino}pyridazin-3-yl)carboxamide],,,Mean AC1.4 [1]: D (D=>20 uM)
CC(C)(CNc1ccc(C(=O)N[C@@H](Cc2ccccc2)C(N)=O)nn1)c1ccc(F)cc1 [N-((1S)-1-carbamoyl-2-phenylethyl)(6-{[2-(4-fluorophenyl)-2-methylpropyl]amino}pyridazin-3-yl)carboxamide],,,Mean AC1.4 [1]: C (C=10-20 uM)
CC(C)(C)[S+]([O-])NCc1cnc(-c2ccc(NCC3(c4ncccc4F)CCC3)nn2)s1 (centres unmarked) [N-((2-(6-((1-(3-fluoropyridin-2-yl)cyclobutyl)methylamino)pyr-idazin-3-yl)thiazol-5-yl)methyl)-2-methylpropane-2-sulfinamide],B (B=1-10 uM),,
"O=C(NC[C@@H](O)CO)c1cnc(-c2ccc(NCC3(c4ncccc4F)CCC3)nn2)s1 [N-((2R)-2,3-dihydroxypropyl){2-[6-({[(3-fluoro(2-pyridyl))cyclobutyl]methyl}ami-no)pyridazin-3-yl](1,3-thiazol-5-yl)}carboxamide]",B (B=1-10 uM),,
"O=C(NC[C@@H](O)CO)c1ccc(F)c(-c2ccc(NC[C@]3(c4ncccc4F)C[C@H](F)C3)nn2)c1 [N-((2R)-2,3-dihydroxypropyl){4-fluoro-3-[6-({[3-fluoro-1-(3-fluoro(2-pyridyl))cyclobutyl]methyl}ami-no)pyridazin-3-yl]phenyl}carboxamide]",A (A=<1 uM),,
"O=C(NC[C@H](O)CO)c1cnc(-c2ccc(NCC3(c4ncccc4F)CCC3)nn2)s1 [N-((2S)-2,3-dihydroxypropyl){2-[6-({[(3-fluoro(2-pyridyl))cyclobutyl]methyl}ami-no)pyridazin-3-yl](1,3-thiazol-5-yl)}carboxamide]",A (A=<1 uM),,
"O=C(NC[C@H](O)CO)c1ccc(F)c(-c2ccc(NC[C@]3(c4ncccc4F)C[C@H](F)C3)nn2)c1 [N-((2S)-2,3-dihydroxypropyl){4-fluoro-3-[6-({[3-fluoro-1-(3-fluoro(2-pyridyl))cyclobutyl]methyl}ami-no)pyridazin-3-yl]phenyl}carboxamide]",A (A=<1 uM),,
O=C(N[C@@H]1CCNC1=O)c1ccc(NCC2(c3ncccc3F)CCC2)nn1 [N-((3R)-2-oxopyrrolidin-3-yl)[6-({[(3-fluoro(2-pyridyl))cyclobutyl]methyl}ami-no)pyridazin-3-yl]carboxamide],,D (D=>20 uM),
CC(C)(CNc1ccc(C(=O)NCC(N)=O)nn1)c1ccc(F)cc1 [N-(carbamoylmethyl)(6-{[2-(4-fluorophenyl)-2-methylpropyl]amino}pyridazin-3-yl)carboxamide],,,Mean AC1.4 [1]: D (D=>20 uM)

# Further lines, with some results ahead:
Mean AC1.4 [2],Mean AC1.4 [3],SMILES,other results
,D (D=>20 uM),O=C1CC[C@@H](NC(=O)c2ccc(NCC3(c4ncccc4F)CCC3)nn2)CN1 [N-((3R)-6-oxo(3-piperidyl))[6-({[(3-fluoro(2-pyridyl))cyclobutyl]methyl}ami-no)pyridazin-3-yl]carboxamide],
,B (B=1-10 uM),O=C(N[C@@H]1CCOC1)c1cccc(-c2ccc(NC[C@]3(c4ncccc4F)C[C@H](F)C3)nn2)c1 [N-((3R)oxolan-3-yl){3-[6-({[3-fluoro-1-(3-fluoro(2-pyridyl))cyclobutyl]methyl}ami-no)pyridazin-3-yl]phenyl}carboxamide],
A (A=<1 uM),,"O=C(N[C@@H]1CCNC1)c1cnc(-c2ccc(NCC3(c4ncccc4F)CCC3)nn2)s1 [N-((3R)pyrrolidin-3-yl){2-[6-({[(3-fluoro(2-pyridyl))cyclobutyl]methyl}ami-no)pyridazin-3-yl](1,3-thiazol-5-yl)}carboxamide]",
B (B=1-10 uM),,O=C(N[C@@H]1CCNC1)c1ccc(F)c(-c2ccc(NC[C@]3(c4ncccc4F)C[C@H](F)C3)nn2)c1 [N-((3R)pyrrolidin-3-yl){4-fluoro-3-[6-({[3-fluoro-1-(3-fluoro(2-pyridyl))cyclobutyl]methyl}ami-no)pyridazin-3-yl]phenyl}carboxamide],
,D (D=>20 uM),O=C(N[C@H]1CCNC1=O)c1ccc(NCC2(c3ncccc3F)CCC2)nn1 [N-((3S)-2-oxopyrrolidin-3-yl)[6-({[(3-fluoro(2-pyridyl))cyclobutyl]methyl}ami-no)pyridazin-3-yl]carboxamide],
,D (D=>20 uM),O=C1CC[C@H](NC(=O)c2ccc(NCC3(c4ncccc4F)CCC3)nn2)CN1 [N-((3S)-6-oxo(3-piperidyl))[6-({[(3-fluoro(2-pyridyl))cyclobutyl]methyl}ami-no)pyridazin-3-yl]carboxamide],
,B (B=1-10 uM),O=C(N[C@H]1CCOC1)c1cccc(-c2ccc(NC[C@]3(c4ncccc4F)C[C@H](F)C3)nn2)c1 [N-((3S)oxolan-3-yl){3-[6-({[3-fluoro-1-(3-fluoro(2-pyridyl))cyclobutyl]methyl}ami-no)pyridazin-3-yl]phenyl}carboxamide],
A (A=<1 uM),,"O=C(N[C@H]1CCNC1)c1cnc(-c2ccc(NCC3(c4ncccc4F)CCC3)nn2)s1 [N-((3S)pyrrolidin-3-yl){2-[6-({[(3-fluoro(2-pyridyl))cyclobutyl]methyl}ami-no)pyridazin-3-yl](1,3-thiazol-5-yl)}carboxamide]",
B (B=1-10 uM),,O=C(N[C@H]1CCNC1)c1ccc(F)c(-c2ccc(NC[C@]3(c4ncccc4F)C[C@H](F)C3)nn2)c1 [N-((3S)pyrrolidin-3-yl){4-fluoro-3-[6-({[3-fluoro-1-(3-fluoro(2-pyridyl))cyclobutyl]methyl}ami-no)pyridazin-3-yl]phenyl}carboxamide],
,B (B=1-10 uM),"O=C(N[C@@H]1CS(=O)(=O)C[C@H]1O)c1cccc(-c2ccc(NC[C@]3(c4ncccc4F)C[C@H](F)C3)nn2)c1 [N-((3S,4S)-4-hydroxy-1,1-dioxothiolan-3-yl){3-[6-({[3-fluoro-1-(3-fluoro(2-pyridyl))cyclobutyl]methyl}ami-no)pyridazin-3-yl]phenyl}carboxamide]",
D (D=>20 uM),,NC(=O)CNC(=O)c1ccc(NCC2(c3ncccc3F)CCC2)nn1 [N-(carbamoylmethyl)[6-({[(3-fluoro(2-pyridyl))cyclobutyl]methyl}ami-no)pyridazin-3-yl]carboxamide],
A (A=<1 uM),,"NC(=O)CNC(=O)c1cnc(-c2ccc(NCC3(c4ncccc4F)CCC3)nn2)s1 [N-(carbamoylmethyl){2-[6-({[(3-fluoro(2-pyridyl))cyclobutyl]methyl}ami-no)pyridazin-3-yl](1,3-thiazol-5-yl)}carboxamide]",
